Consider one compound from ChEMBL document CHEMBL3785085, “Pharmacokinetics of single and multiple doses of phenytoin in man” (Eur J Clin Pharmacol, 1974).

Series [1] is described as follows: Drug uptake in healthy human volunteer (5 volunteers) at 5 mg/kg, iv administered as single dose through infusion after 0.5 hrs by gas chromatographic method. It counts as ADME, organism-based. Particulars: in vivo, read-out: Drug uptake.
The next series concerns Plasma. Put plainly: Plasma concentration at steady state in healthy human volunteer (5 volunteers) at 2 mg/kg, po bid administered for 12 days by gas chromatographic method. Particulars: in vivo, 288 h. It counts as ADME, organism-based.
Series [2] is described as follows: Half life in healthy human volunteer (5 volunteers) at 5 mg/kg, po administered as single dose by gas chromatographic method. It is filed as ADME, organism-based. Particulars: in vivo.
Series [3] is described as follows: Half life in healthy human volunteer (5 volunteers) at 5 mg/kg, iv administered as single dose through infusion by gas chromatographic method. Particulars: in vivo. It counts as ADME, organism-based.
A short description of series [4]: Total plasma clearance in healthy human volunteer (5 volunteers) at 5 mg/kg, iv administered as single dose by gas chromatographic method. It counts as ADME, organism-based.
Series [5] in a line: Apparent volume of distribution (area) in healthy human volunteer (5 volunteers) at 5 mg/kg, iv administered as single dose through infusion by gas chromatographic method. Particulars: in vivo, read-out: Vd(app). It is filed as ADME, organism-based.
Series [6] can be described thus: Half life during steady state in healthy human volunteer (5 volunteers) at 2 mg/kg, po bid administered for 12 days by gas chromatographic method. It is filed as ADME, organism-based. Particulars: in vivo.
Series [7] can be described thus: Cmax in healthy human volunteer (5 volunteers) at 5 mg/kg, po administered as single dose by gas chromatographic method. It is filed as ADME, organism-based. Further details: dose 5 mg/kg, route oral. Particulars: in vivo.
A further series deals with Homo sapiens. Description: Anticonvulsant activity in po dose patient assessed as compound level in plasma required to decrease epileptic seizure. It counts as functional.
Series [8] can be described thus: Half life at post steady state in healthy human volunteer (5 volunteers) at 2 mg/kg, po bid administered for 12 days by gas chromatographic method. It is filed as ADME, organism-based. Particulars: in vivo.

For orientation: half-life means how long it takes for the measured level to halve. The low end stands for fast loss, the high end for slow loss. As a reminder, the clearance is a measure of how efficiently the substance is removed, as volume per time. A lower clearance goes with inefficient removal. For orientation: Cmax means the highest concentration seen after dosing. On to `O=C1N=C([O-])NC1(c1ccccc1)c1ccccc1.[Na+]` [PHENYTOIN SODIUM], for which, in series [1], the concentration at 0.5 h turned out to be 8400 ng/mL. The compound further returned a Cpss with Plasma of 5.3 µg/mL. Further, the half-life is 16.6 h in series [2], 14.5 h in series [3], 21.3 h in series [6] and 15.9 h in series [8]. This compound also gave a clearance in [4] of 0.367 mL/min/kg. Also, in series [5], the Vd was determined as 0.52 L/kg. The compound also returned a Cmax in [7] of 2600 ng/mL. Also, the MEC with Homo sapiens turned out to be 10 µg/mL.
